Key:
Assay type in all cases: cell-based
[1] = test system: MDA-MB-231 (breast cancer); assay: Antiproliferative activity (CCK-8 cell viability), MDA-MB-231; conditions: Homo sapiens, 72 h, read-out: Antiproliferative activity in cancerous cells, MDA-MB-231 (inhibition of cell growth); for inhibition at 3.3 µM: Compound concentration: 3.3 μM; for inhibition at 10 µM: Compound concentration: 10 μM; for inhibition at 30 µM: Compound concentration: 30 μM
Summary of the method: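 Growth inhibition of human MDA-MB-231 breast cancer cells was assessed with a Cell Counting Kit-8. Cells cultured in DMEM plus 10% FBS were seeded at 2,000-5,000 cells/well, treated after attachment, and kept 72 h at 37° C. CCK-8 solution (10 μL) was added for 4 h, and absorbance at 450 nm was compared with DMSO-treated controls.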

SW480 (colon cancer) = assay: Antiproliferative activity (CCK-8 cell viability), SW480; conditions: Homo sapiens, 72 h, read-out: Antiproliferative activity in cancerous cells, SW480 (inhibition of cell growth); for inhibition at 3.3 µM: Compound concentration: 3.3 μM; for inhibition at 10 µM: Compound concentration: 10 μM; for inhibition at 30 µM: Compound concentration: 30 μM
Summary of the method: (§1)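 Growth inhibition graded in bands from percent viability against DMSO vehicle, read as CCK-8 absorbance at 450 nm. Compound tested at 3.3, 10 or 30 μM for 72 h, 37 °C; media contained 10% FBS: DMEM for HepG2/SW480, MEM for HeLa, F-12K for A549.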

HepG2 (liver cancer) = assay: Antiproliferative activity (CCK-8 cell viability), HepG2; conditions: Homo sapiens, 72 h, read-out: Antiproliferative activity in cancerous cells, HepG2 (inhibition of cell growth); for inhibition at 3.3 µM: Compound concentration: 3.3 μM; for inhibition at 10 µM: Compound concentration: 10 μM; for inhibition at 30 µM: Compound concentration: 30 μM
Summary of the method: as §1

[2] = test system: B16F10 (malignant melanoma); assay: Antiproliferative activity (CCK-8 cell viability), B16F10; conditions: Mus musculus, 72 h, read-out: Antiproliferative activity in cancerous cells, B16F10 (inhibition of cell growth); for inhibition at 3.3 µM: B16-F10, Compound concentration: 3.3 μM; for inhibition at 10 µM: B16-F10, Compound concentration: 10 μM; for inhibition at 30 µM: B16-F10, Compound concentration: 30 μM
Summary of the method: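 Cell growth inhibition was measured in B16F10 malignant melanoma cells with a Cell Counting Kit-8 viability assay. Cells were maintained in DMEM plus 10% fetal bovine serum, seeded at 2,000-5,000 cells/well in 96-well plates, and treated for 72 h at 37° C. Viability was expressed relative to DMSO-treated vehicle control wells.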

[3] = test system: A549 (lung adenocarcinoma); assay: Antiproliferative activity (CCK-8 cell viability), A549; conditions: Homo sapiens, 72 h, read-out: Antiproliferative activity in cancerous cells, A549 (inhibition of cell growth); for inhibition at 3.3 µM: Compound concentration: 3.3 μM; for inhibition at 10 µM: Compound concentration: 10 μM; for inhibition at 30 µM: Compound concentration: 30 μM
Summary of the method: as §1

[4] = test system: A431 (epidermoid carcinoma); assay: Antiproliferative activity (CCK-8 cell viability), A431; conditions: Homo sapiens, 72 h, read-out: Antiproliferative activity in cancerous cells, A431 (inhibition of cell growth); for inhibition at 3.3 µM: A-431, Compound concentration: 3.3 μM; for inhibition at 10 µM: A-431, Compound concentration: 10 μM; for inhibition at 30 µM: A-431, Compound concentration: 30 μM
Summary of the method: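 This growth inhibition assay used A431 cells maintained in Dulbecco's modified Eagle's medium plus 10% fetal bovine serum. Cells were seeded in 96-well plates, treated with compound for 72 h at 37° C., and then given 10 μL CCK-8 solution. After a further 4 h, absorbance was read at 450 nm.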

HeLa (cervical cancer) = assay: Antiproliferative activity (CCK-8 cell viability), HeLa; conditions: Homo sapiens, 72 h, read-out: Antiproliferative activity in cancerous cells, HELA (inhibition of cell growth); for inhibition at 3.3 µM: Compound concentration: 3.3 μM; for inhibition at 10 µM: Compound concentration: 10 μM; for inhibition at 30 µM: Compound concentration: 30 μM
Summary of the method: as §1

| SMILES | inhibition at 3.3 µM [1] [%] | inhibition at 10 µM [1] [%] | inhibition at 30 µM [1] [%] | inhibition at 3.3 µM (SW480 (colon cancer)) [%] | inhibition at 10 µM (SW480 (colon cancer)) [%] | inhibition at 30 µM (SW480 (colon cancer)) [%] | inhibition at 3.3 µM (HepG2 (liver cancer)) [%] | inhibition at 10 µM (HepG2 (liver cancer)) [%] | inhibition at 30 µM (HepG2 (liver cancer)) [%] | inhibition at 3.3 µM [2] [%] | inhibition at 10 µM [2] [%] | inhibition at 30 µM [2] [%] | inhibition at 3.3 µM [3] [%] | inhibition at 10 µM [3] [%] | inhibition at 30 µM [3] [%] | inhibition at 3.3 µM [4] [%] | inhibition at 10 µM [4] [%] | inhibition at 30 µM [4] [%] | inhibition at 3.3 µM (HeLa (cervical cancer)) [%] | inhibition at 10 µM (HeLa (cervical cancer)) [%] | other results |
| --- | --- | --- | --- | --- | --- | --- | --- | --- | --- | --- | --- | --- | --- | --- | --- | --- | --- | --- | --- | --- | --- |
| CC1=C(CC(=O)O)c2cc(F)ccc2/C1=C\c1ccc(Cc2cc3ccccc3s2)cc1 [C312, (Z)-2-(1-(4-(Benzo[b]thiophen-2-ylmethyl)benzylidene)-5-fluoro-2-methyl-1H-inden-3-yl)acetic acid] | 30 to 50 | ≥ 50 | ≥ 50 | ≥ 50 | ≥ 50 | ≥ 50 | ≥ 50 | ≥ 50 | ≥ 50 | ≥ 50 | ≥ 50 | ≥ 50 | < 30 | ≥ 50 | ≥ 50 | ≥ 50 | ≥ 50 | ≥ 50 | ≥ 50 | ≥ 50 | inhibition at 30 µM (HeLa (cervical cancer)): ≥ 50% |
| CC1=C(CC(=O)O)c2cc(F)ccc2/C1=C\c1cccc(C2(c3ccccc3)SCCS2)c1 [C352, (Z)-2-(5-Fluoro-2-methyl-1-(3-(2-phenyl-1,3-dithiolan-2-yl)benzylidene)-1H-inden-3-yl)acetic acid] | 30 to 50 | ≥ 50 | ≥ 50 | < 30 | ≥ 50 | ≥ 50 | < 30 | ≥ 50 | ≥ 50 | < 30 | ≥ 50 | ≥ 50 | < 30 | ≥ 50 | ≥ 50 | < 30 | ≥ 50 | ≥ 50 | < 30 | ≥ 50 | inhibition at 30 µM (HeLa (cervical cancer)): ≥ 50% |
| CC1=C(CC(=O)O)c2cc(F)ccc2/C1=C\c1ccc(C2(c3ccccc3)SCCS2)cc1 [C353, (Z)-2-(5-Fluoro-2-methyl-1-(4-(2-phenyl-1,3-dithiolan-2-yl)benzylidene)-1H-inden-3-yl)acetic acid] | ≥ 50 | ≥ 50 | ≥ 50 | ≥ 50 | ≥ 50 | ≥ 50 | ≥ 50 | ≥ 50 | ≥ 50 | < 30 | ≥ 50 | ≥ 50 | < 30 | ≥ 50 | ≥ 50 | ≥ 50 | ≥ 50 | ≥ 50 | ≥ 50 | ≥ 50 | inhibition at 30 µM (HeLa (cervical cancer)): ≥ 50% |
